# Measured values from patent US7820689B2, “Methods and compositions for preventing or treating cardiovascular disease” (priority 2006, dated 2010).
# Read-outs that look alike come from different tables or passages of the source.
# Experiments:
# [1] = Serum lipid levels in apoE-deficient mice on high cholesterol diet; format: in vivo
# Protocol: (§1) ApoE-deficient mice were fed with a high cholesterol diet containing 21% fat and 0.15% cholesterol (PMI LabDiet 40097, Richmond, Ind., USA) from 8-17 weeks of age. […] After completing the treatment, blood samples were collected by direct heart puncture when sacrificing the animals. The serum levels of total cholesterol, LDL, HDL, and triglyceride were measured by enzymatic methods using an automatic analyzer (Model 747, Hitachi Ltd. Co., Tokyo, Japan). The aorta was dissected from the aortic valve to the iliac bifurcation. To identify lipid-rich atherosclerotic lesions, the aorta was rinsed in 50% isopropanol for 2 minutes, incubated in 0.67% Oil-Red-O for 15 minutes, and washed by 10% isopropanol for 2 minutes. Using a dissection microscope, the area of each atherosclerotic lesion was measured with Image Pro Plus software (Version 3.0.1; Media Cybernetics, Inc, Silver Spring, Md., USA) and expressed as percentage of atherosclerotic area/total area of the aorta.
# apoE-deficient mice = format: in vivo
# Protocol: as §1
# C57BL/6 mice = assay: Carotid artery ligation vascular remodeling model, morphometry; format: in vivo; conditions: for neointima/media (N/M) ratio: 28 days after surgery, controls 1.4±0.6; for lumen area / neointima area: 28 days; for lumen area: PBS 12859±7258; for neointima area: PBS 33623±9377
# Excerpt: Adult C57BL/6 mice (8-12 weeks) were anesthetized by intraperitoneal injection of sodium pentobarbital. The left common carotid artery was isolated and ligated completely with a 6-0 silk suture near the carotid bifurcation. […] After completing the treatment the animals were sacrificed and the segment of the left common carotid artery just proximal to the ligation was excised, fixed in 4% paraformaldehyde, and embedded in paraffin. Five transverse sections per animal were cut at 100 μm intervals and stained with hematoxylin-eosin. The borders of the internal lumen, internal elastic lamina (IEL), and external elastic lamina (EEL) were traced on a digitizing board using Meta Imaging Series 5.0 software ([…].). The luminal, IEL, and EEL areas were measured. The neointima area was calculated by subtracting the luminal area from the IEL area, and the media area was calculated by subtracting the IEL area from the EEL area. The total vascular area was represented by EEL area. The ratio of neointima to media area (N/M ratio) was calculated. Average values were obtained from morphometric analysis of each section of the animal.
# Data were given as mean±SD. The Mann-Whitney U test was used to compare continuous variables between the two groups. […] All statistical analyses were performed using SPSS 12.0 (SPSS Inc. Chicago, Ill., USA). The statistical significance level was set at P<0.05, two-tailed.
# [2] = test system: TNF-α production from the THP-1 cell culture after LPS stimulation; assay: LPS-induced TNF-α production in PMA-differentiated THP-1 macrophage culture (ELISA); format: cell-based, human; conditions: for TNF-α production after LPS: 1 h before 100 ng/mL LPS, 24 h; for TNFα in medium: LPS 100 ng/mL, LPS alone 8.02±0.42
# Protocol: (§2) THP-1 cells were grown in the RPMI-1640 medium containing 10% fetal bovine serum at 37° C. in 5% CO2. The cells were differentiated to macrophages after treatment of the culture with 100 nM PMA for 24 hours. The cell suspension (5×10^5) was added in 0.5 mL into each well of the tissue culture plates. For each experiment, naloxone was prepared immediately before use. LPS was dissolved in sterile water and stored at −70° C. in aliquots. LDL was isolated from human endotoxin-free heparin plasma and was oxidized using CuSO4. In brief, LDL (1 mL, 1 mg/mL) was dialyzed in 500 mL phosphate-buffered saline (PBS, pH 7.4) overnight. Copper sulfate was added to a final concentration of 5 μM, and the LDL was allowed to oxidize at room temperature for 24 hours.
# The TNF-α level in the supernatant was determined by ELISA.
# (§3) The supernatants were harvested and the TNF-α, IL-6, and MCP-1 levels were determined by ELISA. Superoxide production in the THP-1 cell culture was measured by lucigenin-enhanced chemiluminescence as described previously (Khadour F H, Panas D, Ferdinandy P, et al. Am J Physiol Heart Circ Physiol, 28:H1108-15 2002). LPS-treated THP-1 cells were treated with PBS containing 1.25 mM lucigenin, and counts were obtained for a 10-minute period in a luminometer (Berthold Technologies, Germany) as relative light units (RLU) emitted. Background counts determined in cell-free preparations were subtracted. Superoxide levels were reported as RLU per 10 minutes and were normalized to the volume (mL) of cell suspension added (i.e., RUL/10 min/mL).
# To investigate the DM effect on macrophage activation, determined the effective DM concentrations were first needed. In a pilot experiment, the effective DM concentration that inhibited TNF-α production from macrophages was examined. […] The THP-1 cell culture was pretreated for 1 hour with various concentrations of DM (1-10^−8 μM) prior to treatment with 100 ng/mL LPS for 24 hours. The TNF-α level in the supernatant was determined by ELISA. […] One μM DM could reduce TNF-α production up to 44 percent in the THP-1 cell culture after LPS stimulation (Table 3). Therefore, subsequent experiments were performed with these effective DM concentrations (0.01, 0.1, and 1 μM).
# THP-1 cells = assay: MTT cell viability assay; format: cell-based, human; conditions: with or without LPS
# Protocol: Cell viability was determined with the 3 (4,5-dimethylthiazol-2-yl) 2,5-diphenyltetrazolium bromide (MTT) assay in each treatment group described above. Briefly, fresh medium was added to cells together with 10% MTT (5 mg/mL). Each plate was maintained at 37° C. for 2 hours and subsequently formazan crystals were dissolved in DMSO. Absorbance was read at a wavelength of 550 nm using a SPECTRAmax PLUS^384 spectrophotometer (Molecular Devices, CA, USA).
# [3] = test system: TNF-α release from THP-1 cells after oxLDL stimulation; assay: oxLDL-induced TNF-α release in THP-1 macrophage culture (ELISA); format: cell-based, human; conditions: for TNF-α in medium: oxLDL, oxLDL alone 2.64±0.61; for TNFα in medium: oxLDL 10 μg/mL, oxLDL alone 1.70±0.06
# Protocol: as §2, §3
# microglia = conditions: cited from earlier work
structure (smiles),measurement,setting,value
"COc1ccc2c(c1)[C@]13CCCC[C@@H]1[C@H](C2)N(C)CC3 [DM, (+)-3-methoxy-17-methyl-9α,13α,14α-morphinan]","total cholesterol, triglyceride, LDL, and HDL levels",[1]; DM treatment for 10 weeks vs controls,no significant differences
same,aortic atherosclerotic lesion area,"apoE-deficient mice; DM 5 mg/kg/day 10 weeks, P=NS, controls 16.9±4.3",14.1±5.7%
same,aortic atherosclerotic lesion area,"apoE-deficient mice; DM 10 mg/kg/day 10 weeks, controls 16.9±4.3",8.2±3.8%
same,aortic atherosclerotic lesion area,"apoE-deficient mice; DM 20 mg/kg/day 10 weeks, controls 16.9±4.3",5.0±2.0%
same,aortic atherosclerotic lesion area,"apoE-deficient mice; DM 40 mg/kg/day 10 weeks, controls 16.9±4.3",4.6±3.6%
same,neointima/media (N/M) ratio,"C57BL/6 mice; DM 5 mg/kg/day 4 weeks, P=NS",1.1±0.7
same,neointima/media (N/M) ratio,C57BL/6 mice; DM 10 mg/kg/day 4 weeks,0.7±0.3
same,neointima/media (N/M) ratio,C57BL/6 mice; DM 20 mg/kg/day 4 weeks,0.4±0.2
same,neointima/media (N/M) ratio,C57BL/6 mice; DM 40 mg/kg/day 4 weeks,0.5±0.2
same,TNF-α in medium,"[2]; DM 0.01 μM pretreatment, LPS, LPS alone 8.85±0.81",6.93 ± 0.76 ng/mL
same,TNF-α production after LPS,[2]; DM pretreatment 1 μM,56 ± 10 % control
same,TNF-α production after LPS,[2]; DM pretreatment 10^−2 μM,74 ± 4 % control
same,TNF-α production after LPS,[2]; DM pretreatment 10^−6 μM,83 ± 3 % control
same,reduction of TNF-α production,"[2]; One μM DM, THP-1 cell culture after LPS stimulation",up to 44%
same,most effective DM concentrations that suppressed macrophage TNF-α production,"[2]; THP-1, after LPS stimulation",0.01 to 1 µM
same,cell viability (MTT),"THP-1 cells; 0.01, 0.1, or 1 μM DM",no significant changes of the cell viability
same,TNF-α in medium,[3]; DM 0.01 μM pretreatment,1.80 ± 0.53 ng/mL
same,TNF-α in medium,[3]; DM 0.1 μM pretreatment,1.75 ± 0.33 ng/mL
same,TNF-α in medium,[3]; DM 1 μM pretreatment,1.77 ± 0.42 ng/mL
same,microglia activation,"microglia; 1 μM DM, Liu et al. 2003",could inhibit microglia activation
"C=CCN1CC[C@]23c4c5ccc(O)c4O[C@H]2C(=O)CC[C@@]3(O)[C@H]1C5 [Naloxone, 17-allyl-4,5α-epoxy-3,14-dihydroxymorphinan-6-one]","total cholesterol, triglyceride, LDL, and HDL levels","[1]; naloxone 10, 20, 25 mg/kg/day i.p. 10 weeks vs PBS",no significant differences
same,aortic atherosclerotic lesion area,"apoE-deficient mice; 10 mg/kg/day i.p. 10 weeks, PBS 12.9±6.1",5.2±3.8%
same,aortic atherosclerotic lesion area,"apoE-deficient mice; 20 mg/kg/day i.p. 10 weeks, PBS 12.9±6.1",3.4±1.4%
same,aortic atherosclerotic lesion area,"apoE-deficient mice; 25 mg/kg/day i.p. 10 weeks, PBS 12.9±6.1",1.8±1.2%
same,lumen area,C57BL/6 mice; 10 mg/kg/day,24475±5261 μm^2
same,neointima area,C57BL/6 mice; 10 mg/kg/day,20052±4372 μm^2
same,lumen area,C57BL/6 mice; 20 mg/kg/day,26452±9024 μm^2
same,neointima area,C57BL/6 mice; 20 mg/kg/day,14233±4040 μm^2
same,lumen area,C57BL/6 mice; 25 mg/kg/day,29650±5643 μm^2
same,neointima area,C57BL/6 mice; 25 mg/kg/day,13865±3494 μm^2
same,Media area regression coefficient (naloxone),C57BL/6 mice; Naloxone 10 mg/kg/day,2950
same,Neointima area regression coefficient (naloxone),C57BL/6 mice; Naloxone 10 mg/kg/day,−13951
same,Total area regression coefficient (naloxone),C57BL/6 mice; Naloxone 10 mg/kg/day,−11000
same,Lumen area regression coefficient (naloxone),"C57BL/6 mice; Naloxone 10 mg/kg/day, Area = B1 + B2 (Naloxone) + B3 (Distance (mm))",12016
same,Lumen area regression coefficient (naloxone),C57BL/6 mice; Naloxone 20 mg/kg/day,14033
same,Media area regression coefficient (naloxone),C57BL/6 mice; Naloxone 20 mg/kg/day,10001
same,Neointima area regression coefficient (naloxone),C57BL/6 mice; Naloxone 20 mg/kg/day,−19584
same,Total area regression coefficient (naloxone),C57BL/6 mice; Naloxone 20 mg/kg/day,−9582
same,Lumen area regression coefficient (naloxone),C57BL/6 mice; Naloxone 25 mg/kg/day,16993
same,Media area regression coefficient (naloxone),C57BL/6 mice; Naloxone 25 mg/kg/day,8112
same,Neointima area regression coefficient (naloxone),C57BL/6 mice; Naloxone 25 mg/kg/day,−20380
same,Total area regression coefficient (naloxone),C57BL/6 mice; Naloxone 25 mg/kg/day,−12267
same,influence of naloxone treatment in regression model of carotid remodeling,"C57BL/6 mice; multiple regression, independent of the distance to ligation","had a statistically significant influence on the lumen, neointima, and total vascular areas"
same,TNFα in medium,[2]; 0.1 μM pretreatment,4.10 ± 0.37 ng/mL
same,TNFα in medium,[2]; 1 μM pretreatment,4.41 ± 0.36 ng/mL
same,reduction of TNFα production,"[2]; 0.01-1 μM, THP1 cell culture after LPS stimulation",50%
same,cell viability (MTT),"THP-1 cells; 0.01, 0.1, or 1 μM naloxone",no significant changes of the cell viability
same,TNFα in medium,[3]; 0.01 μM pretreatment,0.85 ± 0.12 ng/mL
same,TNFα in medium,[3]; 0.1 μM pretreatment,0.62 ± 0.04 ng/mL
same,TNFα in medium,[3]; 1 μM pretreatment,0.60 ± 0.05 ng/mL
same,neuron protection / microglia activation,"microglia; 1 μM naloxone, Liu et al. 2000",could protect neurons through inhibition of microglia activation
